Experiment: mn = molality of the nth substance listed, in mol/kg
Details: Liquid, Vibrating tube method

[Br-].[Br-].[Zn+2] [zinc bromide] + CCO
Details | mass density [kg/m3]
298.15 K, 39998 kPa, m1 = 0.1696 | 842.43
298.16 K, 5021 kPa, m1 = 1.887 | 1058.5
298.16 K, 15032 kPa, m1 = 0.05681 | 807.29
298.16 K, 15201 kPa, m1 = 0.9305 | 937
298.16 K, 15612 kPa, m1 = 0.1696 | 825.53
298.16 K, 15624 kPa, m1 = 0.3043 | 845.7
298.16 K, 20014 kPa, m1 = 0.4384 | 869.08
298.16 K, 29932 kPa, m1 = 0.3043 | 856.21
298.16 K, 34951 kPa, m1 = 0.1696 | 839.25
298.16 K, 35026 kPa, m1 = 1.887 | 1081.92
298.17 K, 5457 kPa, m1 = 0.3043 | 837.46
298.17 K, 25045 kPa, m1 = 0.05681 | 814.8
298.17 K, 25140 kPa, m1 = 1.887 | 1074.74
298.17 K, 25416 kPa, m1 = 0.1696 | 832.79
298.17 K, 35024 kPa, m1 = 0.9305 | 951.54
298.17 K, 39854 kPa, m1 = 0.3043 | 862.75
313.11 K, 20023 kPa, m1 = 0.1696 | 817.08
313.11 K, 39787 kPa, m1 = 1.887 | 1072.61
313.12 K, 29927 kPa, m1 = 1.887 | 1065.27
313.12 K, 34843 kPa, m1 = 1.887 | 1069.01
313.12 K, 39907 kPa, m1 = 0.1696 | 831.46
313.13 K, 4920 kPa, m1 = 0.4384 | 843.98
313.13 K, 14572 kPa, m1 = 0.1696 | 812.62
313.13 K, 24931 kPa, m1 = 0.1696 | 820.9
313.13 K, 25016 kPa, m1 = 1.887 | 1061.4
313.13 K, 35021 kPa, m1 = 0.05681 | 810.73
313.14 K, 5014 kPa, m1 = 0.05681 | 786.55
313.14 K, 5102 kPa, m1 = 0.3043 | 824.32
313.14 K, 9947 kPa, m1 = 0.9305 | 919.42
313.14 K, 29730 kPa, m1 = 0.4384 | 864.47
313.14 K, 34690 kPa, m1 = 0.4384 | 868
313.14 K, 39625 kPa, m1 = 0.3043 | 851.54
313.15 K, 1265 kPa, m1 = 0.05681 | 783.06
313.15 K, 1326 kPa, m1 = 0.3043 | 820.84
313.15 K, 1425 kPa, m1 = 1.49 | 988.5
313.15 K, 5027 kPa, m1 = 1.49 | 991.85
313.15 K, 9994 kPa, m1 = 1.887 | 1048.64
313.15 K, 10024 kPa, m1 = 0.05681 | 791.06
313.15 K, 10245 kPa, m1 = 0.3043 | 828.9
313.15 K, 10627 kPa, m1 = 1.49 | 996.89
313.15 K, 15329 kPa, m1 = 1.49 | 1000.98
313.15 K, 19809 kPa, m1 = 0.9305 | 927.83
313.15 K, 19932 kPa, m1 = 0.4384 | 856.94
313.15 K, 20014 kPa, m1 = 0.3043 | 837.09
313.15 K, 20065 kPa, m1 = 0.05681 | 799.53
313.15 K, 20324 kPa, m1 = 1.49 | 1005.17
313.15 K, 24735 kPa, m1 = 0.4384 | 860.72
313.15 K, 25035 kPa, m1 = 0.9305 | 932.01
313.15 K, 25647 kPa, m1 = 1.49 | 1009.46
313.15 K, 29901 kPa, m1 = 0.9305 | 935.73
313.15 K, 29925 kPa, m1 = 0.1696 | 824.61
313.15 K, 29954 kPa, m1 = 1.49 | 1012.81
313.15 K, 29964 kPa, m1 = 0.05681 | 807.13
313.15 K, 34524 kPa, m1 = 0.3043 | 848.04
313.15 K, 34627 kPa, m1 = 1.49 | 1016.31
313.15 K, 34851 kPa, m1 = 0.1696 | 828.08
313.15 K, 39846 kPa, m1 = 1.49 | 1020.06
313.15 K, 39878 kPa, m1 = 0.9305 | 942.83
313.15 K, 39881 kPa, m1 = 0.4384 | 871.49
313.15 K, 39914 kPa, m1 = 0.05681 | 814.03
313.16 K, 1622 kPa, m1 = 0.4384 | 840.91
313.16 K, 9861 kPa, m1 = 0.4384 | 848.44
313.16 K, 14924 kPa, m1 = 0.4384 | 852.81
313.16 K, 15002 kPa, m1 = 0.9305 | 923.82
313.16 K, 15021 kPa, m1 = 0.05681 | 795.37
313.16 K, 15032 kPa, m1 = 0.3043 | 833
313.16 K, 29952 kPa, m1 = 0.3043 | 844.75
313.16 K, 34974 kPa, m1 = 0.9305 | 939.43
313.17 K, 10022 kPa, m1 = 0.1696 | 808.74
313.17 K, 15110 kPa, m1 = 1.887 | 1053.14
313.17 K, 20144 kPa, m1 = 1.887 | 1057.41
313.17 K, 25481 kPa, m1 = 0.05681 | 803.78
313.17 K, 25921 kPa, m1 = 0.3043 | 841.73
313.18 K, 4967 kPa, m1 = 0.9305 | 914.91
313.19 K, 1520 kPa, m1 = 0.9305 | 911.69
313.19 K, 5004 kPa, m1 = 1.887 | 1044.1
313.2 K, 1456 kPa, m1 = 0.1696 | 801
313.2 K, 4848 kPa, m1 = 0.1696 | 804.13
313.24 K, 1850 kPa, m1 = 1.887 | 1041.15
333.12 K, 1327 kPa, m1 = 0.1696 | 782.58
333.12 K, 1898 kPa, m1 = 0.9305 | 892.88
333.12 K, 4943 kPa, m1 = 1.887 | 1024.22
333.12 K, 9762 kPa, m1 = 0.4384 | 830.56
333.12 K, 19882 kPa, m1 = 0.4384 | 840.07
333.12 K, 39840 kPa, m1 = 1.887 | 1055.35
333.13 K, 5145 kPa, m1 = 0.05681 | 769.04
333.13 K, 24749 kPa, m1 = 0.4384 | 844.29
333.13 K, 29989 kPa, m1 = 0.9305 | 919.06
333.13 K, 34942 kPa, m1 = 0.9305 | 922.93
333.14 K, 5187 kPa, m1 = 0.4384 | 825.95
333.14 K, 19787 kPa, m1 = 0.9305 | 910.38
333.14 K, 20014 kPa, m1 = 0.3043 | 820.51
333.14 K, 25451 kPa, m1 = 0.05681 | 788.08
333.14 K, 34776 kPa, m1 = 1.887 | 1051.46
333.15 K, 1541 kPa, m1 = 0.05681 | 765.27
333.15 K, 1627 kPa, m1 = 0.3043 | 802.62
333.15 K, 1698 kPa, m1 = 1.49 | 969.07
333.15 K, 4776 kPa, m1 = 0.1696 | 786.15
333.15 K, 5045 kPa, m1 = 1.49 | 972.54
333.15 K, 5098 kPa, m1 = 0.9305 | 896.23
333.15 K, 10025 kPa, m1 = 0.05681 | 773.96
333.15 K, 10027 kPa, m1 = 0.9305 | 901.19
333.15 K, 10046 kPa, m1 = 1.887 | 1029.4
333.15 K, 10624 kPa, m1 = 1.49 | 978.11
333.15 K, 15214 kPa, m1 = 1.887 | 1034.43
333.15 K, 15326 kPa, m1 = 1.49 | 982.61
333.15 K, 15924 kPa, m1 = 0.3043 | 816.79
333.15 K, 19921 kPa, m1 = 0.05681 | 783.27
333.15 K, 19984 kPa, m1 = 1.49 | 986.89
333.15 K, 24658 kPa, m1 = 1.49 | 991.01

From the NIST ThermoML archive (doi:10.1016/j.jct.2009.05.004)
